Experimental data published in ChEMBL document CHEMBL3132822, “Novel 1-(1-benzyl-1H-indol-3-yl)-N,N,N-trimethylmethanaminium iodides are competitive antagonists for the human 42 and 7 nicotinic acetylcholine receptors” (Medchemcomm, 2013).

Legend:
Homo sapiens = species: Homo sapiens; test: Selectivity ratio of IC50 for human alpha4beta2 nAChR to IC50 for human alpha7 nAChR
[1] = target: T1, Neuronal acetylcholine receptor subunit alpha-7 (Homo sapiens, UniProt P36544); test: Antagonist activity at human alpha7 nAChR expressed in rat GH3 cells assessed as (+/-)-epibatidine-induced Ca2+ influx; assay type: cell-based
T1 sequence (P36544 whole entry): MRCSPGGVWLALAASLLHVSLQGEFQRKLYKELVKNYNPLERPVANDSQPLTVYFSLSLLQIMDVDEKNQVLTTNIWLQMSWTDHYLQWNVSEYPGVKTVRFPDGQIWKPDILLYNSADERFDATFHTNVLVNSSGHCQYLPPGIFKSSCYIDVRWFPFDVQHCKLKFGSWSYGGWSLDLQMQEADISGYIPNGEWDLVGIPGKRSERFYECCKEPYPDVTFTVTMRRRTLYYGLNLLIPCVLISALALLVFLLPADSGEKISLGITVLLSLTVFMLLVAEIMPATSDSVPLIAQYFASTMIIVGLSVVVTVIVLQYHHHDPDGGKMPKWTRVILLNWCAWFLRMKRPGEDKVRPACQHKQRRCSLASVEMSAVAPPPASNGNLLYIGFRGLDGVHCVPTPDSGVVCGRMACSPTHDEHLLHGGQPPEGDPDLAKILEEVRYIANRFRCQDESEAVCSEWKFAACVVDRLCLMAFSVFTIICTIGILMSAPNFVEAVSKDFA

[2] = target: T2, Neuronal acetylcholine receptor; alpha4/beta2 (Homo sapiens, UniProt P17787+P43681); test: Antagonist activity at human alpha4beta2 nAChR expressed in HEK293 cells assessed as (+/-)-epibatidine-induced Ca2+ influx; assay type: cell-based
T2 sequence (P17787 whole entry): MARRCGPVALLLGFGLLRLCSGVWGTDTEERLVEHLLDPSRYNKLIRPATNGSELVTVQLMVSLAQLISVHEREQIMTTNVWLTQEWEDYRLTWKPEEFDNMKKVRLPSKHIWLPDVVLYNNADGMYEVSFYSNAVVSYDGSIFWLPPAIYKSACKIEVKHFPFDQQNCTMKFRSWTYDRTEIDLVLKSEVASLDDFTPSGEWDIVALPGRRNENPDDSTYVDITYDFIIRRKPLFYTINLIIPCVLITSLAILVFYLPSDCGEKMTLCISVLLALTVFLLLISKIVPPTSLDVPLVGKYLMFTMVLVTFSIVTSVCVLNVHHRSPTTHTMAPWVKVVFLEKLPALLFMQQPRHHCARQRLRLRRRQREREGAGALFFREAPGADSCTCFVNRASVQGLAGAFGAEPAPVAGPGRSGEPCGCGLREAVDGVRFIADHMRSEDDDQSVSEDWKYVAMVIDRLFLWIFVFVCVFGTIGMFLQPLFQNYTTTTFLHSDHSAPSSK
T2 sequence (P43681 whole entry): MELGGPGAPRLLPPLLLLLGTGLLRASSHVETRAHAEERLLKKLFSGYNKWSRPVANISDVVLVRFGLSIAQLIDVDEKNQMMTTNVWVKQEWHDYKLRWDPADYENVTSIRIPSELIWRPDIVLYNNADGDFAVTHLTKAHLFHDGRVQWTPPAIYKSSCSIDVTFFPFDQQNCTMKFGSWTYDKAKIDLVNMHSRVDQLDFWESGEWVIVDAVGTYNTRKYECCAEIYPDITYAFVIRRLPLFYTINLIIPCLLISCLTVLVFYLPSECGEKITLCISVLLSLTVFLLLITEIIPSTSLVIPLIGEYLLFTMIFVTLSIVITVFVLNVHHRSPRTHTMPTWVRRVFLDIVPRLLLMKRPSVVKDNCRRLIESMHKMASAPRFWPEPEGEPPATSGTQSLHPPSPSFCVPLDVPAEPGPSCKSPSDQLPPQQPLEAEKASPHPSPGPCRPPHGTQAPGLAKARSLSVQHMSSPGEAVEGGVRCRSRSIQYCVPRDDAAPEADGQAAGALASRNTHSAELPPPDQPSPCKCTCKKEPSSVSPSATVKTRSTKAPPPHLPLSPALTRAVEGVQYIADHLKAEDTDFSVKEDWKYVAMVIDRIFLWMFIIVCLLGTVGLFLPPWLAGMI

[3] = target: T2, Neuronal acetylcholine receptor; alpha4/beta2; test: Displacement of [3H]cytisine from human alpha4beta2 nAChR; assay type: protein-complex assay
[4] = target: T1, Neuronal acetylcholine receptor subunit alpha-7; test: Displacement of [3H]MLA from human alpha7 nAChR
[5] = target: T2, Neuronal acetylcholine receptor; alpha4/beta2; test: Displacement of [3H]imipramine from human alpha4beta2 nAChR; assay type: protein-complex assay
[6] = target: T1, Neuronal acetylcholine receptor subunit alpha-7; test: Displacement of [3H]imipramine from human alpha7 nAChR

| Structure (SMILES) | Ratio IC50 (Homo sapiens) | IC50 [1] [µM] | IC50 [2] [µM] | Ki [3] [µM] | Ki [4] [µM] | Ki [5] [µM] | Ki [6] [µM] |
| --- | --- | --- | --- | --- | --- | --- | --- |
| COc1ccc(Cn2cc(C[N+](C)(C)C)c3ccccc32)cc1 | 2.2 | 2 | 4.4 |  |  |  |  |
| C[N+](C)(C)Cc1cn(Cc2ccccc2)c2ccccc12 | 1.9 | 2.3 | 4.2 |  |  |  |  |
| C[N+](C)(C)Cc1cn(Cc2ccc3c(c2)OCO3)c2ccccc12 | 3 | 1.3 | 3.9 |  |  |  |  |
| C[n+]1cccc(Cn2cc(C[N+](C)(C)C)c3ccccc32)c1 |  | 41.3 | > 100 |  |  |  |  |
| C[N+](C)(C)Cc1cn(Cc2cccc(O)c2)c2ccccc12 | 14.7 | 1 | 14.7 | 1.6 | 0.6 | 112 | 145 |

Continued, in another order:

| Ratio IC50 (Homo sapiens) | Structure (SMILES) | IC50 [1] [µM] | IC50 [2] [µM] | Ki [3] [µM] | Ki [4] [µM] | Ki [5] [µM] | Ki [6] [µM] |
| --- | --- | --- | --- | --- | --- | --- | --- |
| 6.7 | COc1ccc(Cn2cc(C[N+](C)(C)C)c3ccccc32)cc1OC | 2.2 | 14.8 |  |  |  |  |
| 7.4 | C[N+](C)(C)Cc1cn(Cc2ccc([N+](C)(C)C)cc2)c2ccccc12 | 2.7 | 20 |  |  |  |  |
| 2.8 | COc1ccc(Cn2cc(C[N+](C)(C)C)c3ccccc32)cc1O | 3.4 | 9.5 |  |  |  |  |
| 11.3 | C[N+](C)(C)Cc1cn(Cc2ccc(O)cc2)c2ccccc12 | 2.2 | 24.9 | 0.6 | 2.9 |  |  |
| 4.1 | COc1cc(Cn2cc(C[N+](C)(C)C)c3ccccc32)ccc1O | 2.2 | 9.1 |  |  |  |  |
